Assay results published in article PMC3914206.

Experiments:
Assay type in all cases: binding
Settings in all cases: Compound Concentration 10 µM
panel of 442 kinases [1] = molecular target: T1, panel of 442 kinases (Homo sapiens, UniProt Q86Z02)
T1 construct: purchased KINOMEscan
Source text: (§1) We assessed the selectivity of members of this scaffold using the KINOMEscan methodology across a near comprehensive panel of 442 kinases [[18,27]].

panel of 442 kinases [2] = molecular target: T2, panel of 442 kinases (Homo sapiens, UniProt O15264)
T2 construct: purchased KINOMEscan
T2 sequence (O15264 1-365): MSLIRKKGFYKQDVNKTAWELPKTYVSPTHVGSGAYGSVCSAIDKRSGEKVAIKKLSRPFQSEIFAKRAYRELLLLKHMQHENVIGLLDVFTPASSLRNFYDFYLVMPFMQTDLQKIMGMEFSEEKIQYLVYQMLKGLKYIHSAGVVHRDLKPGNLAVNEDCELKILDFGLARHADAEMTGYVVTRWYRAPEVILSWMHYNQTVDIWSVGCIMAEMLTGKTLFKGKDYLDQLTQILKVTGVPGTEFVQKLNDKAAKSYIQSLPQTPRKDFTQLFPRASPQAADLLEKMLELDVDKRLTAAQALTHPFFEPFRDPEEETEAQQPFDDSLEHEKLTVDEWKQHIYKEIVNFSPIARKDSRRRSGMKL
Source text: as §1

panel of 442 kinases [3] = molecular target: T3, panel of 442 kinases (Homo sapiens, UniProt Q13188)
T3 construct: purchased KINOMEscan
T3 sequence (Q13188 1-491): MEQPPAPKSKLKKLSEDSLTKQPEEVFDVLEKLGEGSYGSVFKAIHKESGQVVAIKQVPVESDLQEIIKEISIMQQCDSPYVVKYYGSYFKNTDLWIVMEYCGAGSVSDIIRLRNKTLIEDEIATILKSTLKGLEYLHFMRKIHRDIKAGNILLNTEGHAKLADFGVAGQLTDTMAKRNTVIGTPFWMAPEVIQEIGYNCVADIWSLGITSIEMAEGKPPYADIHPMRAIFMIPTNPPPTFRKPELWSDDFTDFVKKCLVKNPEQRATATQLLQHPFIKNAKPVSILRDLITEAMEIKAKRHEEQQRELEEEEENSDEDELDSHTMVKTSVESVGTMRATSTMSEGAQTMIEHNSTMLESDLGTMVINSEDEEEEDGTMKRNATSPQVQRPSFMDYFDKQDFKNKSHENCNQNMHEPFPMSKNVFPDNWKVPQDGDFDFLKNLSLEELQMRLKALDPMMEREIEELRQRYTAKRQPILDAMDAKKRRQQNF
Source text: as §1

T1 sequence (Q86Z02 whole entry): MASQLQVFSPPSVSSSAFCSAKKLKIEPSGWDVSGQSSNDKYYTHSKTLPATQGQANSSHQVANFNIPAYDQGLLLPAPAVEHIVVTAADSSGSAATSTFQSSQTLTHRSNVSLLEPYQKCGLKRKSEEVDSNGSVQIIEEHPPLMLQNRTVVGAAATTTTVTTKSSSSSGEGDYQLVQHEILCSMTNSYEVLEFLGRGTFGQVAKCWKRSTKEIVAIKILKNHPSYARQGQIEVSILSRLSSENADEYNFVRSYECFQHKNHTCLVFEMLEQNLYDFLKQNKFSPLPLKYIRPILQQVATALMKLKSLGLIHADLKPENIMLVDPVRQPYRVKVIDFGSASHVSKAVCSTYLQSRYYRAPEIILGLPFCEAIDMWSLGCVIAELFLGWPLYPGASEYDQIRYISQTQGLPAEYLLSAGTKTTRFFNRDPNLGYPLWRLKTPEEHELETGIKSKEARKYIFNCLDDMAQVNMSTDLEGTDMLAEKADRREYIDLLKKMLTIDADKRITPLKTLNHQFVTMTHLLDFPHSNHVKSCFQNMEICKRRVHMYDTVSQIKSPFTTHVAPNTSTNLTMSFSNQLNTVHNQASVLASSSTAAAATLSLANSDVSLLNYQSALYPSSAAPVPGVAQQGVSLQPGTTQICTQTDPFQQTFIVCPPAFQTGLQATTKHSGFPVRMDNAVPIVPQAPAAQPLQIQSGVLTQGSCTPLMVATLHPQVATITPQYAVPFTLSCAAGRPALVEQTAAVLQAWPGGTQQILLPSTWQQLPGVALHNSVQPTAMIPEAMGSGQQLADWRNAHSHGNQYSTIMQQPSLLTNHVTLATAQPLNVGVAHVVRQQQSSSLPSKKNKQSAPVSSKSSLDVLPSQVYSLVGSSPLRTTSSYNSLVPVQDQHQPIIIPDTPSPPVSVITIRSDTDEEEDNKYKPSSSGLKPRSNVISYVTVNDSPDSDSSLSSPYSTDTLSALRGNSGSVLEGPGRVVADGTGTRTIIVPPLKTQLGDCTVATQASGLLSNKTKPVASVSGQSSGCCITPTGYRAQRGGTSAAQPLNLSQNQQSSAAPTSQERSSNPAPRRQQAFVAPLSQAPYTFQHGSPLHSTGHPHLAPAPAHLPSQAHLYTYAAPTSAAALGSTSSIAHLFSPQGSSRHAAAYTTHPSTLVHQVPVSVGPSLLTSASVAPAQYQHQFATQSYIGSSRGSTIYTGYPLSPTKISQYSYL

| Compound | KINOMEscan: HIPK1 (panel of 442 kinases [1]) | KINOMEscan: p38-delta (panel of 442 kinases [2]) | KINOMEscan: MST2 (panel of 442 kinases [3]) |
| --- | --- | --- | --- |
| COc1cc(C(=O)N2CCC(N3CCN(C)CC3)CC2)ccc1Nc1ncc2c(n1)N1CCc3cccc(c31)C(=O)N2C [Compound 24] | 52 | – | – |
| CCOc1cc(C(=O)N2CCC(N3CCN(C)CC3)CC2)ccc1Nc1ncc2c(n1)N(C1CCCC1)c1ccccc1C(=O)N2C [Compound 26] | 100 | 100 | 100 |
| COc1cc(C(=O)N2CCC(N3CCN(C)CC3)CC2)ccc1Nc1ncc2c(n1)N(C1CCCC1)c1ccccc1C(=O)N2C [Compound 25, 11-cyclopentyl-2-((2-methoxy-4-(4-(4-methylpiperazin-1-yl)piperidine-1-carbonyl)phenyl)amino)-5-methyl-5H-benzo[e]pyrimido[5,4-b][1,4]diazepin-6(11H)-one] | 100 | 100 | 100 |
| COc1cc(C(=O)N2CCC(N3CCN(C)CC3)CC2)ccc1Nc1ncc2c(n1)N(C)c1ccccc1C(=O)N2C [15 (LRRK2-IN-1)] | 100 | 72 | 71 |
